We go through 1 substance from PMC12648313, “Enhancing the Efficacy, Utility, and Throughput of the Transcription Block Survival Peptide Library Screening Platform” (JACS Au, 2025).

Series [1] concerns the target T1, ATF2 (Homo sapiens, UniProt P15336).
T1 construct: human ATF2 bZIP domain spans from Asp352 to Gln410; made in house; host or cells: chemical synthesis (Fmoc solid-phase peptide synthesis), no expression host
T1 sequence (P15336 352-410): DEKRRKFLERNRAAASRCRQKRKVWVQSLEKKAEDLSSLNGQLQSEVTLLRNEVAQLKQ
The experiment in a line: Circular dichroism spectra. It counts as binding. The note with it: pH 7.4. An excerpt:
(§1) removed before peptide concentration determination.
(§2) Peptide samples were suspended in 20
A general note: Circular dichroism is the unequal absorption of left and right circularly polarised light.

The test system of the next series is DLX5/H-Box complex. The experiment in a line: FP antagonism assay DLX5/H-Box. It counts as biochemical. To be noted: FAM-H-Box DNA, over the concentration range tested.
The target of series [2] is T1, ATF2. Briefly: CD thermal denaturation, ATF2/ATF2W mixture. It counts as binding.
Excerpt: as §1, §2

In a further series the target is T2, CREB1-CRE complex (Homo sapiens, UniProt P16220).
T2 construct: Ala283 to Asp341
T2 sequence (P16220 283-341 isoform P16220-1): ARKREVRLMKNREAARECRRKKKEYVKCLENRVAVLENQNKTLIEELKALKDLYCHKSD
Briefly: FP antagonism assay CREB1-CRE. It counts as biochemical. To be noted: FP IC50, CREB1-CRE vs ATF2-CRE. Here is the method:
Fluorescence polarization (FP) was next utilized to confirm that ATF2W binding induces the intended antagonism of the ATF2-CRE interaction. […] To assess ATF2W antagonism, 625 nM ATF2, which corresponded to 80% of the maximum DNA binding, was incubated with CRE DNA (10 nM) and varied concentrations of ATF2W (29 nM-12 μM). […] This represents a ∼ 3-fold selectivity for ATF2. […] As the peptide library was designed using established coiled coil interaction rules, it was expected that many sequences would bind the target.
(§3) (DMF). Deprotection was performed by addition of 0.75 mL 30% pyrrolidine into the coupling reaction. Peptides were acetylated at the N-terminus by a final reaction with 3x acetic anhydride, 4.5x diisopropylethylamine in DMF for one hour at room temperature. Incubation in a cleavage mixture (95% TFA, 2.5% triisopropylsilane, 2.5% H2O, 10 mL) for 4 h at room temperature cleaved the peptide from the resin and removed side chain protecting groups.
(§4) 2.5% DODT was added to the cleavage cocktail for ATF2. The resin was removed by filtration and cleaved peptides were precipitated in diethyl ether at -80°C and centrifuged.
This pellet was washed a further four times with diethyl ether before it was dried overnight at room temperature. […]

A further series has as its system FAM-CRE DNA. Briefly: FP binding of ATF2W to CRE DNA. To be noted: ATF2W 9 nM-10 μM, FAM-CRE DNA 10 nM, up to 1000x excess. Here is the method: as §1, §2
(§5) Post-melt scans at 20°C confirmed the
(§6) Sequential 2 µL injections of ATF2W (50 µM)
(§7) Data from a control experiment whereby […]
(§8) errors are given as one standard deviation.
Fluorescence polarisation: Fluorescence polarisation was measured in a CLARIOstar […]
chloride, 5 mM MgCl2, 10 mM TCEP, pH 7.4 buffer. Palindromic FAM-CRE DNA oligo was […]
purchased from Merck: 5’[6FAM]- […]. 200 µM of the oligo was […]
prepared in water and then annealed by heating to 95°C for 10 minutes before cooling slowly to room temperature to give a 100 µM duplex stock. Samples containing 10 nM FAM-CRE and a serial dilution of ATF2 (12 nM-10 µM) were prepared and incubated at room temperature for 1 hour before transferring to the assay plate for measurement. Data were fit to a one site binding model. For antagonism experiments, the ATF2 concentration required for 80% response was selected. Samples containing 10 nM FAM-TRE, 625 nM ATF2 and a serial dilution of ATF2W (29 nM-12 µM) were prepared and incubated at room temperature for 2 hours before transferring to the assay plate for measurement. CREB1/CRE, cJun/TRE and DLX5/H-box DNA antagonism were determined by the equivalent experiments, using the FAM-CRE oligo above; FAM-TRE DNA oligoes: 5’-[6FAM]-[…], 5’- […]
[6FAM]-[…]; and palindromic FAM-H-Box oligo: 5’-[6FAM]- […]

For series [3] the following is noted: ATF2W alone; 222 nm, 1 to 95 °C, pH 7.4, 10 mM TCEP.HCl; two-state model. Here is the method: as §3, §4
This pellet was washed a further four times with diethyl ether before it was dried overnight at room temperature. Peptides were resuspended in 1:1 water:acetonitrile (0.1% TFA) before purification using RP-HPLC with a Jupiter Proteo column (4-μm particle size, 90 Å pore size, 250 × 10 mm; Phenomenex) using a water:acetonitrile gradient (0.1% TFA). Peptide masses and purity (>95%) were verified by electrospray ionisation mass spectrometry. Upon solubilising in buffer, peptides were centrifuged to ensure insoluble/aggregated material was removed before peptide concentration determination.
Circular Dichroism: An Applied Photophysics Chirascan was used for CD measurements, with a 200 µL sample in a 1 mm path length CD cell. […]

The target of series [4] is T1, ATF2. Briefly: Isothermal titration calorimetry. It counts as binding. The note with it: 20 °C, pH 7.4, average of three independent experiments ± SD.
Excerpt: 5 Biophysical characterization of the ATF2-ATF2W interaction. (A) CD spectra of ATF2 and ATF2W indicating an increase in helicity upon mixture of the two components, indicative of the formation of a heterodimeric coiled coil. (B) CD thermal denaturation experiment indicates a T m shift upon mixture of ATF2/ATF2W, supporting the formation of a stable heterodimer. The “average” CD trace in A and B represents an averaged value of the two unbound components which would be the trace for no interaction. (C) ITC data for ATF2W (50 μM) titrated into ATF2 (5 μM) at 20 °C. The raw power compensation plot is shown in the upper graph and the integrated data points and single site model fitted line are shown in the lower graph. […] ATF2W is selective for ATF2, with a ∼ 3-fold reduction in antagonism for CREB1/CRE and cJun/TRE despite high structural and sequence homology. […]
as §1, §2, §5, §6, §7, §8
Fluorescence polarisation: Fluorescence polarisation was measured in a CLARIOstar
In general terms: Isothermal titration calorimetry measures the heat released or taken up as one component is titrated into another.

Take “Ac-LEQQLEELAQENEELEKEAAELQQQIARLKNEVAKLENENKTLDREIKALQREYSHKSD-NH2 [ATF2W]”: the “increase in helicity upon mixing, relative to the average” value at ATF2 [1] (1:1 mixture with ATF2 (5 μM each) vs average of individual components (10 μM each), 20 mM potassium phosphate, 150 mM potassium fluoride, 10 mM TCEP.HCl, 222 nm) was found to be 32%. For the same substance, the “222/208 ratio of heterodimer spectrum” value on ATF2 [1] (1:1 mixture with ATF2 (5 μM each)) was found to be 0.8. In addition, in the series with DLX5/H-Box complex, the “antagonism of DLX5/H-Box interaction” value is “minimal antagonism”. Further, at ATF2 [2] (heterodimeric ATF2/ATF2W sample vs ATF2W alone), the “ΔTm relative to ATF2W alone” value is 18 °C. Also, the Tm on ATF2 [2] (heterodimeric ATF2/ATF2W sample, 222 nm, 1 to 95 °C, pH 7.4, 10 mM TCEP.HCl, two-state model) came out at 55 °C. The “fold selectivity for ATF2 over CREB1” value on CREB1-CRE complex is listed as ~3 -fold. The “interaction with CRE DNA” value with FAM-CRE DNA is on record as “does not interact with CRE DNA”. Also, in series [3], the Tm is 37 °C. The same substance registered a Kd at ATF2 [4] (ATF2W (50 μM) titrated into ATF2 (5 μM), 50 mM potassium phosphate, 150 mM NaCl, 10 mM TCEP, one-site model) of 114 ± 21 nM. On ATF2 [4] (ITC), the “-TΔS” value worked out at 40 ± 4 kJ mol^–1, the “N (stoichiometry)” value amounted to 0.99 ± 0.01 and the ΔH is −79 ± 3 kJ mol^–1.

The Kd is the concentration at which binding is half-saturated.
